Results on eight compounds are retold here after US12692238B2, “Substituted pyridazinone herbicides” (FMC CORPORATION, priority 2020, dated 2026).

Holding throughout (assay type): in vivo
Assay [1] deals with foxtail, green (green foxtail, Setaria viridis). The assay is described as follows: Test A preemergence, foxtail, green. The following applies: 0 to 100 scale, 10 days. From the text:
(§1) Seeds of plant species selected from barnyardgrass (Echinochloa crus-galli), blackgrass (Alopecurus myosuroides), corn (Zea mays), foxtail, giant (giant foxtail, Setaria faberi), foxtail, green (green foxtail, Setaria viridis), goosegrass (Eleusine indica), kochia (Bassia scoparia), oat, wild (wild oat, Avena fatua), palmer amaranth (pigweed, palmer, Amaranthus palmeri), redroot pigweed (Amaranthus retroflexus), ragweed (common ragweed, Ambrosia artemisiifolia), ryegrass, Italian (Italian ryegrass, Lolium multiflorum), and soybean (Glycine max) were planted into a blend of loam soil and sand and treated preemergence with a directed soil spray using test chemicals formulated in a non-phytotoxic solvent mixture which included a surfactant.
(§2) At the same time, plants selected from these crop and weed species and also wheat (Triticum aestivum), galium (catchweed bedstraw, Galium aparine) and horseweed (Erigeron canadensis) were planted in pots containing the same blend of loam soil and sand and treated with postemergence applications of test chemicals formulated in the same manner. Plants ranged in height from 2 to 10 cm and were in the one- to two-leaf stage for the postemergence treatment. Treated plants and untreated controls were maintained in a greenhouse for 10 days, after which time all treated plants were compared to untreated controls and visually evaluated for injury. Plant response ratings, summarized in Table A, are based on a 0 to 100 scale where 0 is no effect and 100 is complete control. A dash (-) response means no test result.

Assay [2] has the same test system. Kind of assay: Test A postemergence, foxtail, green. As to conditions: 10 days.
From the text: as §1, §2

The subject of assay [3] is redroot pigweed (Amaranthus retroflexus). The assay is described as follows: Test A postemergence, redroot pigweed. As to conditions: 10 days. Summed up:
(§3)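 Compounds were sprayed in a non-phytotoxic, surfactant-containing solvent. For preemergence the spray was directed onto freshly seeded loam/sand soil; for postemergence it went onto one- to two-leaf plants. Visual injury, 0–100, was recorded at 10 days.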

The test system of assay [4] is ryegrass, Italian (Italian ryegrass, Lolium multiflorum). The assay is described as follows: Test A postemergence, ryegrass, Italian. The following applies: Lolium multiflorum, post-emergence, 240 h, 10 days, read-out: Plant response rating, Ryegrass, Italian; for pest or weed control at 31 g/ha: 31 g ai/ha, postemergence, 0 to 100 scale (0 no effect, 100 complete control); for pest or weed control at 125 g/ha: Postemergence, 125 g ai/ha, 0 to 100 scale. Summed up: as §3

Assay [5] concerns ducksalad (Heteranthera limosa). Kind of assay: Test B flooded paddy test, ducksalad. As to conditions: Heteranthera limosa; 250 g ai/ha, Flood; visually evaluated after 10 to 14 days; read-out: Plant response rating, Ducksalad (0 to 100 scale where 0 is no effect and 100 is complete control). Summed up: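 Compound is introduced straight into paddy water on flooded pots (3 cm) containing 2-leaf-stage plants. Controls are run alongside, and all plants are rated by eye on a 0–100 scale after 10 to 14 days under glass.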

In assay [6] the test system is foxtail, giant (giant foxtail, Setaria faberi). Kind of assay: Test A preemergence, foxtail, giant. The following applies: Setaria faberi, pre-emergence, 240 h, 0 to 100 scale, 10 days, read-out: Plant response rating, Foxtail, Giant; for pest or weed control at 31 g/ha: 31 g ai/ha; for pest or weed control at 125 g/ha: 125 g ai/ha. Summed up: as §3
Assay [7] relates to blackgrass (Alopecurus myosuroides). The assay is described as follows: Test A preemergence, blackgrass. The following applies: 0 to 100 scale, 10 days. Summed up:
as §3

The test system of assay [8] is corn (Zea mays). The assay is described as follows: Test A preemergence, corn. The following applies: 0 to 100 scale, 10 days. An outline of the steps: as §3
Assay [9] relates to goosegrass (Eleusine indica). The assay is described as follows: Test A preemergence, goosegrass. As to conditions: 0 to 100 scale, 10 days. Summed up: as §3
In assay [10] the test system is oat, wild (wild oat, Avena fatua). The assay is described as follows: Test A preemergence, oat, wild. The following applies: 0 to 100 scale, 10 days. Summed up: as §3
For assay [11], the system named is palmer amaranth (pigweed, palmer, Amaranthus palmeri). The assay is described as follows: Test A preemergence, palmer amaranth. The following applies: 0 to 100 scale, 10 days. Summed up:
as §3

For assay [12], the system named is soybean (Glycine max). Kind of assay: Test A preemergence, soybean. As to conditions: 0 to 100 scale, 10 days. Summed up: as §3
The subject of assay [13] is goosegrass (Eleusine indica). Kind of assay: Test A postemergence, goosegrass. As to conditions: 10 days. An outline of the steps:
as §3

In assay [14] the test system is oat, wild (wild oat, Avena fatua). The assay is described as follows: Test A postemergence, oat, wild. As to conditions: 10 days. An outline of the steps:
as §3

The subject of assay [15] is palmer amaranth (pigweed, palmer, Amaranthus palmeri). Kind of assay: Test A postemergence, palmer amaranth. The following applies: 10 days. Summed up: as §3
Assay [16] has as its system soybean (Glycine max). Kind of assay: Test A postemergence, soybean. As to conditions: 10 days. Summed up:
as §3

Assay [17] has as its system horseweed (Erigeron canadensis). The assay is described as follows: Test A postemergence, horseweed. As to conditions: 10 days. An outline of the steps: as §3
The subject of assay [18] is wheat (Triticum aestivum). The assay is described as follows: Test A preemergence, wheat. As to conditions: 125 g ai/ha, 0 to 100 scale, 10 days.
Setting [19] is: 31 g ai/ha, postemergence, 0 to 100 scale (0 no effect, 100 complete control).
The mark [20] stands for this setting: Postemergence, 125 g ai/ha, 0 to 100 scale.

As for `CC(=O)OCOc1c(Cl)nn(C)c(=O)c1-c1c(C)sc2cccc(Cl)c12` [Compound 1, 5-[(acetyloxy)methoxy]-6-chloro-4-(4-chloro-2-methylbenzo[b]thien-3-yl)-2-methyl-3(2H)-pyridazinone], the “Plant response rating, Foxtail, Green” value is listed as 0 in assay [1] (31 g ai/ha), 10 in assay [1] (125 g ai/ha), 0 in assay [2] (setting [19]) and 10 in assay [2] (setting [20]). Besides, the “Plant response rating, Pigweed, Redroot” value in assay [3] (setting [19]) was determined as 80; in assay [3] (setting [20]), 90. In [4], the pest or weed control at 31 g/ha came to 10%. The pest or weed control at 125 g/ha in [4] amounted to 30%. Also, the pest or weed control at 250 g/ha in assay [5] is 0%.
Regarding `CC(=O)OCOc1c(C)nn(C)c(=O)c1-c1c(Br)sc2ccc(F)cc12` [Compound 2, 5-[(acetyloxy)methoxy]-4-(2-bromo-5-fluorobenzo[b]thien-3-yl)-2,6-dimethyl-3(2H)-pyridazinone], the pest or weed control at 31 g/ha came out at 30% in [6] and 80% in assay [4]. Moreover, the values for the pest or weed control at 125 g/ha in [6] and in assay [4] were 60% and 100%, respectively. Besides, the “Plant response rating, Pigweed, Redroot” value is 80 in [3] (setting [19]) and 90 in [3] (setting [20]). Also, the pest or weed control at 250 g/ha in assay [5] stood at 20%.
Take `CC(=O)OCOc1c(Cl)nn(C)c(=O)c1-c1c(C)ccc2ccc(C)cc12` [Compound 3, 5-[(Acetyloxy)methoxy]-6-chloro-4-(2,7-dimethyl-1-naphthalenyl)-2-methyl-3(2H)-pyridazinone]: the pest or weed control at 31 g/ha in [6] was determined as 10%; in assay [4], 80%. In addition, the pest or weed control at 125 g/ha in [6] and in assay [4] was 100% throughout. Further, the “Plant response rating, Pigweed, Redroot” value in assay [3] (setting [19]) and in [3] (setting [20]) was 100 each time. Further, the pest or weed control at 250 g/ha in [5] came to 95%.
In the case of `CC(=O)OCOc1c(Cl)nn(C)c(=O)c1-c1c(C)ccc2ccccc12` [Compound 5, 5-[(acetyloxy)methoxy]-6-chloro-2-methyl-4-(2-methyl-1-naphthalenyl)-3(2H)-pyridazinone], the “Plant response rating, Foxtail, Green” value in assay [1] (31 g ai/ha) is listed as 50; in assay [1] (125 g ai/ha), 90; in assay [2] (setting [19]), 40; in assay [2] (setting [20]), 80. Further, the “Plant response rating, Pigweed, Redroot” value is 90 in [3] (setting [19]) and 100 in assay [3] (setting [20]). Moreover, the pest or weed control at 31 g/ha in assay [4] was found to be 30%. Further, in assay [4], the pest or weed control at 125 g/ha was found to be 80%. In [5], the pest or weed control at 250 g/ha turned out to be 80%.
As to `COC(=O)OCOc1c(Cl)nn(C)c(=O)c1-c1c2cc(C)ccc2cc2ccc(C)cc12` [Compound 8, [[3-chloro-5-(2,7-dimethyl-9-anthracenyl)-1,6-dihydro-1-methyl-6-oxo-4-pyridazinyl]oxy]methyl methyl carbonate], the “Plant response rating, Blackgrass” value in [7] (31 g ai/ha) and in [7] (125 g ai/ha) was 0 each time. Moreover, the “Plant response rating, Corn” value in assay [8] (31 g ai/ha) was 0; in assay [8] (125 g ai/ha) it was 60. For the same compound, the pest or weed control at 31 g/ha in assay [6] turned out to be 30%; in assay [4], 10%. The pest or weed control at 125 g/ha is 70% in assay [6] and 10% in assay [4]. Moreover, the “Plant response rating, Goosegrass” value in assay [9] (31 g ai/ha), in assay [9] (125 g ai/ha), in [13] (setting [19]) and in assay [13] (setting [20]) was 0 throughout. Moreover, the “Plant response rating, Oat, Wild” value in [10] (31 g ai/ha) was found to be 0; in assay [10] (125 g ai/ha) it was 0; in [14] (setting [19]) it was 0; in assay [14] (setting [20]), 10. Besides, the “Plant response rating, Pigweed, Palmer” value is on record as 100 in assay [11] (31 g ai/ha), 100 in assay [11] (125 g ai/ha), 70 in assay [15] (setting [19]) and 100 in assay [15] (setting [20]). In addition, the “Plant response rating, Soybean” value in [12] (31 g ai/ha) worked out at 0; in assay [12] (125 g ai/ha), 0; in assay [16] (setting [19]), 40; in assay [16] (setting [20]), 60. Further, the “Plant response rating, Horseweed” value in assay [17] (setting [19]) and in assay [17] (setting [20]) was 100 each time. Besides, in [5], the pest or weed control at 250 g/ha is 95%. For the same compound, in assay [18], the “Plant response rating, Wheat” value is on record as 0.
With `CC(=O)OCOc1c(Cl)nn(C)c(=O)c1-c1c2ccccc2cc2ccccc12` [Compound 10, 5-[(acetyloxy)methoxy]-4-(9-anthracenyl)-6-chloro-2-methyl-3(2H)-pyridazinone], the pest or weed control at 31 g/ha in assay [6] and in [4] was 0% in each case. The pest or weed control at 125 g/ha in assay [6] was determined as 20%; in assay [4] it was 0%. Moreover, the “Plant response rating, Pigweed, Redroot” value in assay [3] (setting [19]) and in assay [3] (setting [20]) was 100 throughout. Also, in [5], the pest or weed control at 250 g/ha came to 95%.
`CC(=O)OCOc1c(Cl)nn(C)c(=O)c1-c1c2ccccc2c(Cl)c2ccccc12` [Compound 11, 5-[(acetyloxy)methoxy]-6-chloro-4-(10-chloro-9-anthracenyl)-2-methyl-3(2H)-pyridazinone]: the pest or weed control at 31 g/ha in assay [6] and in assay [4] was 10% throughout. Moreover, the results for the pest or weed control at 125 g/ha in assay [6] and in assay [4] were 60% and 70%, respectively. In addition, the “Plant response rating, Pigweed, Redroot” value in [3] (setting [19]) and in assay [3] (setting [20]) was 100 each time. Also, in assay [5], the pest or weed control at 250 g/ha was 80%.
Consider `CC(=O)OCOc1c(C)nn(C)c(=O)c1-c1c2cc(C)ccc2cc2ccc(F)cc12` [Compound 24, 5-[(acetyloxy)methoxy]-4-(2-fluoro-7-methyl-9-anthracenyl)-2,6-dimethyl-3(2H)-pyridazinone], for which the pest or weed control at 31 g/ha in assay [6] and in assay [4] was 90% in each case. For the same compound, the pest or weed control at 125 g/ha in [6] is 100%; in [4], 90%. The “Plant response rating, Pigweed, Redroot” value in [3] (setting [19]) and in assay [3] (setting [20]) was 100 each time. Also, the pest or weed control at 250 g/ha in [5] stood at 75%.
